Measurements reported in the supplement of paper PMC10307832.

How the values were obtained:
Assay in all cases: relative viability (nuclei count vs DMSO), 5 days (fraction); higher = more cells survive
Tozasertib + Dasatinib = compound: Cc1cc(Nc2cc(N3CCN(C)CC3)nc(Sc3ccc(NC(=O)C4CC4)cc3)n2)n[nH]1 [Tozasertib] + Cc1nc(Nc2ncc(C(=O)Nc3c(C)cccc3Cl)s2)cc(N2CCN(CCO)CC2)n1 [Dasatinib] (partner 0.075 µM)
Procedure, shortened: (§1)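 A single step with final 0.05% Triton X-100, 1% formaldehyde and 1 ug/ml Hoechst fixed the cells and stained nuclei 5 days after treatment. Lung cancer cell lines in 1536-well plates had been treated by pin tool the day after seeding with one drug alone or a fixed anchor-drug dose plus five library-drug doses (not always all listed) in √10 steps, and nuclei were counted on 4× images. Relative viability is the ratio of nuclei in treated wells to nuclei in vehicle wells, taken as the median of duplicate plates.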

Tozasertib + Vorinostat = compound: Cc1cc(Nc2cc(N3CCN(C)CC3)nc(Sc3ccc(NC(=O)C4CC4)cc3)n2)n[nH]1 [Tozasertib] + O=C(CCCCCCC(=O)Nc1ccccc1)NO [Vorinostat] (partner 1 µM)
Procedure, shortened: as §1

Tozasertib + Olaparib = compound: Cc1cc(Nc2cc(N3CCN(C)CC3)nc(Sc3ccc(NC(=O)C4CC4)cc3)n2)n[nH]1 [Tozasertib] + O=C(c1cc(Cc2n[nH]c(=O)c3ccccc23)ccc1F)N1CCN(C(=O)C2CC2)CC1 [Olaparib] (partner 8 µM)
Procedure, shortened: as §1

Tozasertib + Foretinib = compound: Cc1cc(Nc2cc(N3CCN(C)CC3)nc(Sc3ccc(NC(=O)C4CC4)cc3)n2)n[nH]1 [Tozasertib] + COc1cc2c(Oc3ccc(NC(=O)C4(C(=O)Nc5ccc(F)cc5)CC4)cc3F)ccnc2cc1OCCCN1CCOCC1 [Foretinib] (partner 0.25 µM)
Procedure, shortened: as §1

Tozasertib + Lapatinib = compound: Cc1cc(Nc2cc(N3CCN(C)CC3)nc(Sc3ccc(NC(=O)C4CC4)cc3)n2)n[nH]1 [Tozasertib] + CS(=O)(=O)CCNCc1ccc(-c2ccc3ncnc(Nc4ccc(OCc5cccc(F)c5)c(Cl)c4)c3c2)o1 [Lapatinib] (partner 2 µM)
Procedure, shortened: as §1

| Cell Line | relative viability (Tozasertib + Dasatinib; first compound 0.004 µM) | relative viability (Tozasertib + Dasatinib; first compound 0.01265 µM) | relative viability (Tozasertib + Dasatinib; first compound 0.04 µM) | relative viability (Tozasertib + Dasatinib; first compound 0.1265 µM) | relative viability (Tozasertib + Vorinostat; first compound 0.004 µM) | relative viability (Tozasertib + Vorinostat; first compound 0.01265 µM) | relative viability (Tozasertib + Vorinostat; first compound 0.1265 µM) | relative viability (Tozasertib + Olaparib; first compound 0.004 µM) | relative viability (Tozasertib + Olaparib; first compound 0.01265 µM) | relative viability (Tozasertib + Olaparib; first compound 0.04 µM) | relative viability (Tozasertib + Olaparib; first compound 0.1265 µM) | relative viability (Tozasertib + Foretinib; first compound 0.004 µM) | relative viability (Tozasertib + Foretinib; first compound 0.01265 µM) | relative viability (Tozasertib + Foretinib; first compound 0.04 µM) | relative viability (Tozasertib + Foretinib; first compound 0.1265 µM) | relative viability (Tozasertib + Lapatinib; first compound 0.004 µM) | relative viability (Tozasertib + Lapatinib; first compound 0.01265 µM) | relative viability (Tozasertib + Lapatinib; first compound 0.04 µM) | relative viability (Tozasertib + Lapatinib; first compound 0.1265 µM) | relative viability (Tozasertib + Vorinostat; first compound 0.04 µM) |
| --- | --- | --- | --- | --- | --- | --- | --- | --- | --- | --- | --- | --- | --- | --- | --- | --- | --- | --- | --- | --- |
| NCI-H2085 | 0.235 | 0.231 | 0.244 | 0.228 | 0.797 | 0.714 | 0.603 | 0.82 | 0.752 | 0.782 | 0.711 | 1.03 | 0.767 | 1.03 | 0.703 | 0.784 | 0.715 | 0.774 | 0.446 | – |
| NCI-H2087 | 0.82 | 0.858 | 1.12 | 0.63 | 0.477 | 0.537 | 0.382 | 0.595 | 0.645 | 0.609 | 0.456 | 1.16 | 0.796 | 1.15 | 0.613 | 1.14 | 1.06 | 1.05 | 0.805 | 0.544 |
| NCI-H2126 | 0.587 | 0.674 | 0.674 | 0.485 | 0.797 | 0.808 | 0.781 | 0.962 | 0.939 | 0.971 | 0.92 | 1.19 | 1.24 | 1.29 | 1.12 | 0.794 | 0.805 | – | 0.567 | 0.915 |
| NCI-H2170 | 0.565 | 0.501 | 0.546 | 0.445 | 0.764 | 0.887 | 0.427 | 0.566 | 0.636 | 0.572 | 0.519 | 0.985 | 0.591 | – | 0.907 | 0.271 | 0.288 | 0.278 | 0.251 | 0.69 |
| NCI-H2228 | 0.493 | 0.493 | 0.546 | 0.232 | 0.668 | 0.402 | 0.49 | 0.616 | 0.511 | 0.622 | 0.366 | 0.947 | 0.803 | 0.851 | 0.356 | 0.958 | – | 0.765 | 0.336 | 0.585 |
| NCI-H2347 | 0.344 | – | 0.262 | 0.281 | 0.586 | 0.643 | 0.664 | 0.528 | 0.616 | 0.697 | 0.582 | 1.17 | 0.908 | 0.842 | 0.87 | 1.06 | 1.01 | 0.953 | 0.763 | 0.57 |
| NCI-H2405 | 0.251 | 0.124 | 0.19 | 0.197 | 1.16 | 0.809 | 0.594 | 0.913 | – | 0.691 | – | 1.09 | 1 | 1.01 | 0.974 | 1.05 | 0.962 | 0.793 | 0.705 | 1.02 |
| NCI-H3122 | 0.71 | 0.802 | 0.913 | 0.886 | 0.852 | 1.07 | 0.485 | 0.646 | 0.67 | 0.62 | 0.641 | 0.969 | 0.94 | 0.977 | 0.944 | 0.974 | 0.992 | 1.02 | 1.04 | 0.869 |
| PC-3 [JPC-3] | 0.863 | 0.966 | 1.06 | 1.03 | 0.616 | 0.51 | 0.566 | 0.807 | 1.15 | 1.16 | 1.14 | 1 | 1.06 | 1.07 | 0.961 | 0.45 | 0.46 | 0.529 | 0.33 | 0.71 |
| PC-14 | – | 0.292 | 0.254 | 0.132 | – | 0.741 | 0.121 | – | 0.208 | 0.256 | 0.224 | 0.966 | 1.09 | 1.04 | 0.986 | 0.293 | 0.287 | 0.354 | 0.361 | 0.879 |
| RERF-LC-KJ | 0.729 | 0.806 | 0.852 | 0.582 | – | 0.519 | 0.478 | 0.945 | 0.871 | 0.865 | 0.668 | 0.795 | 0.831 | 0.957 | – | 0.86 | 0.838 | 0.925 | 0.804 | 0.654 |
| SK-LU-1 | 0.183 | 0.191 | 0.188 | 0.146 | 0.893 | 0.788 | 0.34 | 0.466 | 0.455 | 0.432 | 0.518 | 0.889 | 0.874 | 0.862 | 0.752 | 1.25 | 1.06 | 1.08 | 0.651 | 0.82 |
| SK-MES-1 | 0.358 | 0.336 | 0.342 | 0.356 | 1 | 1.1 | 0.525 | 0.791 | 0.666 | 0.71 | 0.657 | 0.934 | 0.814 | 0.884 | 1.03 | 0.477 | 0.468 | 0.514 | 0.438 | 1.19 |
| SW 1573 | 0.505 | 0.43 | 0.361 | 0.0939 | 0.624 | 0.599 | 0.192 | 0.479 | 0.452 | 0.456 | 0.208 | 0.839 | 0.905 | 1.02 | 0.8 | 1.03 | 1.23 | 1.21 | 1.05 | 0.509 |
| UMC-11 | 0.495 | 0.545 | 0.521 | 0.161 | 0.408 | 0.327 | 0.16 | 0.367 | 0.47 | 0.362 | 0.257 | 0.985 | 0.995 | 0.788 | 0.186 | 1.03 | 0.944 | 1.04 | 0.244 | 0.291 |
